Where two headings read alike, the source gives them in different places.
Tests used:
[1] = Related substance assay / chromatographic API purity of prototype formulations; format: physicochemical
Description: Analytical Method I for Related Substance Assay (TABLE 2.5):
This method was previously established and validated (see 3,4,3-L1(1,2-HOPO)—Excipient Compatibility Study; EXAMPLE 1). Suitability was therefore not re-evaluated as part of this study.
Analytical Method I for Related Substance Assay (TABLE 2.6):
The related substances, estimated as area (%) from the chromatograms, and the chromatographic purity of 3,4,3-L1(1,2-HOPO) in selected prototype formulations are listed in TABLE 2.28.

[2] = format: in vivo, Swiss-Webster mice; conditions: for urinary excretion, of administered dose: rodents (mice)
Description: (§1) Formulated material was used in the single dose in vivo ADME characterization studies in Sprague Dawley rats and Swiss-Webster mice with 14C-labeled 3,4,3-L1(1,2-HOPO).
(§2) Pharmacokinetic parameters and disposition/biodistribution of 3,4,3-L1(1,2-HOPO) were characterized in vivo (with the aid of two 14C labels on the spermine backbone of the parent product) in two non-GLP studies using Swiss-Webster mice and Sprague Dawley rats. The study designs for these two studies are shown in TABLE 5.1 and TABLE 5.2, respectively. Groups of six mice (3 male, 3 female) were given a single dose of [14C]-3,4,3-L1(1,2-HOPO) via iv, ip, or po routes, respectively. An additional group of six mice (3 male, 3 female) were administered the 14C-labeled API with permeability enhancer (10% sodium oleate) by oral gavage (po). Similarly, groups of six rats (3 male, 3 female) were administered a single iv dose of the 14C-labeled API or a single po dose of the 14C-labeled API with 10% sodium oleate. In each of these studies, samples were collected at scheduled time points up to 24 hr post-dose and analyzed for 14C content using liquid scintillation counting. Blood, liver, kidney, feces and urine were collected and analyzed from the mice. Blood, brain, liver, kidney, lungs, spleen, skeletal muscle tissues, gastrointestinal (GI) tract samples, carcasses, feces, and urine were collected and analyzed from the rats.

[3] = Radiolabeled in vivo ADME study in rats (with metabolite profiling); parameters: species or system Sprague Dawley rats; conditions: for urinary excretion, of administered dose: rodents (rats)
Description: as §1, §2
The principal excretion routes of radioactivity from [14C]-3,4,3-L1(1,2-HOPO) were both the feces and urine after an iv dose based on high levels of radioactivity in both feces and urine as well as significant radioactivity in the excretory tissues, kidney, liver and GI tract. Fecal elimination by 24 hr post-dose accounted for approximately 62% and 16% of the iv administered dose in mice and rats, respectively. Urinary excretion accounted for approximately 12-23% of the iv administered dose in these rodents with renal excretion of 14C beginning as early as 5 min after iv injection in mice. In contrast, following oral administration, excretion was primarily by the fecal route accounting for approximately 89% and 41% of the orally administered dose in mice and rats, respectively, by 24 h post-dose. Urinary excretion accounted for <1% of the orally administered dose and low radioactivity levels were detected in systemic circulation and in tissues except for the GI tract. […] Based on the colonic transit time in rats of 15.5 hr, 11 the radioactivity found in the feces in the first 24 hr after po administration is most likely unabsorbed compound. […] Metabolite profiling of [14C]-3,4,3-L1(1,2-HOPO) was performed using an HPLC method on selected urine, feces, kidney, liver, and lung samples from the Sprague Dawley rat. Only samples containing the highest total radioactive levels were selected for analysis. A total of 11 peaks were detected, of which 6 were from uncharacterized interactions between the test article and matrix components because they were also seen in spiked blank matrix controls. These 6 peaks are not metabolites and are considered alternate forms of the parent compound (e.g. complexes of the test article with metallic ions). The 5 other radioactive species (peaks P1-P4 and P10) are considered potential metabolites. Feces-specific metabolite peaks P2, P3, and P10 represented a combined 10.5-11.4% and 0.5-4.2% of the administered dose after po or iv administration, respectively, in rats. Peak P10 was the most abundant peak in all samples analyzed. It represented up to 10% of the administered dose in feces after po administration while the other two feces-specific peaks represented <1% of the administered dose after po administration. Peak P10 was also the predominant, and sometimes the only, peak in feces samples after iv administration. […]

## O=C(NCCCN(CCCCN(CCCNC(=O)c1cccc(=O)n1O)C(=O)c1cccc(=O)n1O)C(=O)c1cccc(=O)n1O)c1cccc(=O)n1O [Drug Substance Control]
[1]; 3,4,3-LI(1,2-HOPO) peak
  Chromatographic Purity of 3,4,3-LI(1,2-HOPO): 97.45 area (%)
[1]; RRT 0.59
  Related Substances, Unknown peak: 0.01 area (%)
[1]; RRT 0.61
  Related Substances, Unknown peak: 0.01 area (%)
[1]; RRT 0.62
  Related Substances, Unknown peak: 0.01 area (%)
[1]; RRT 0.87
  Related Substances, Unknown peak: 0.11 area (%)
[1]; RRT 0.89
  Related Substances, Unknown peak: 0.13 area (%)
[1]; RRT 1.02
  Related Substances, Unknown peak: 0.08 area (%)
[1]; RRT 1.11
  Related Substances, Unknown peak: 0.04 area (%)
[1]; RRT 1.27
  Related Substances, Unknown peak: 0.17 area (%)
[1]; RRT 1.30
  Related Substances, Unknown peak: 0.10 area (%)
[1]; RRT 1.39
  Related Substances, Unknown peak: 0.20 area (%)
[1]; RRT 1.40
  Related Substances, Unknown peak: 0.04 area (%)
[1]; RRT 1.46
  Related Substances, Unknown peak: 0.60 area (%)
[1]; RRT 1.74
  Related Substances, Unknown peak: 0.15 area (%)
[1]; RRT 1.89
  Related Substances, Unknown peak: 0.18 area (%)
[1]; RRT 2.17
  Related Substances, Unknown peak: 0.33 area (%)
[1]; RRT 2.30
  Related Substances, Unknown peak: 0.05 area (%)
[1]; RRT 2.58
  Related Substances, Unknown peak: 0.25 area (%)
[1]; RRT 2.79
  Related Substances, Unknown peak: 0.11 area (%)

## [14C]-3,4,3-L1(1,2-HOPO)
[2]; ip, mice
  time of highest level of radioactivity in kidneys and liver: 1 h
[2]; iv, by 24 hr post-dose, mice
  fecal elimination, of administered dose: approximately 62%
[2]; iv, female mice
  AUC (plasma radioactivity): 66.2 hr Pg-eq/ml
  C0 (plasma radioactivity): 342 Pg-eq/mL
[2]; iv, male mice
  AUC (plasma radioactivity): 41.7 hr Pg-eq/ml
  C0 (plasma radioactivity): 76 Pg-eq/mL
[2]; iv, mice
  time of highest level of radioactivity in kidneys and liver: 1 h
[2]; iv
  urinary excretion, of administered dose: 12-23%
[2]; mice
  oral bioavailability improvement with sodium oleate: 2- to 3 fold
[2]; oral, by 24 h post-dose, mice
  fecal excretion, of administered dose: approximately 89%
[2]; oral, mice
  bioavailability of total radioactivity: < 3%
[2]; oral
  urinary excretion, of administered dose: < 1%
[3]; iv, 2 hr time point, rats
  general rank order of tissue concentrations: kidney>liver>lung>brain spleen muscle
[3]; iv, by 24 hr post-dose, rats
  fecal elimination, of administered dose: ~16%
[3]; iv, female rats
  AUC (plasma radioactivity): 211 hr Pg-eq/ml
  C0 (plasma radioactivity): 422 Pg-eq/ml
[3]; iv, male rats
  AUC (plasma radioactivity): 354 hr Pg-eq/ml
  C0 (plasma radioactivity): 463 Pg-eq/ml
[3]; iv, rats
  feces-specific metabolite peaks P2, P3, and P10 combined, of the administered dose: 0.5-4.2%
  metabolite peak P1 in urine, of the administered dose: ≤ 0.4%
  time of highest level of radioactivity in kidneys and liver: 2 h
[3]; iv
  urinary excretion, of administered dose: 12-23%
[3]; oral, by 24 h post-dose, rats
  fecal excretion, of administered dose: ~41%
[3]; oral, rats
  bioavailability of total radioactivity: < 3%
  putative major metabolite (P10), of an administered oral dose: ~10%
[3]; oral
  urinary excretion, of administered dose: < 1%
[3]; po, rats
  feces-specific metabolite peaks P2, P3, and P10 combined, of the administered dose: 10.5-11.4%
  other two feces-specific peaks, of the administered dose: < 1%
  peak P10 in feces, of the administered dose: up to 10%
